Results as given in US12653194B2, “Compositions and methods for promoting soil microbials for plant health and stress tolerance” (The United States of America, as represented by The …, priority 2021, dated 2026).

Test system: soil microbials (fungi and bacteria)
Test: Peach orchard field trial: soil fungal and bacterial abundance (16S rRNA / ITS sequencing, PCA)
Assay type: in vivo
Conditions: applied in 110 mL water within 15 cm of tree trunk plus 190 mL water, extract 34 HCE about 16x diluted (0.0625xHCE), 300,000 IJs per tree
Excerpt: The pheromone can be extracted with alcohol in a concentration range from about 0% to about 95%. The liquid (supernatant) may be removed and concentrated to produce a dry extract by using a stream of nitrogen, by rotary evaporation, by lyophilization, or by any equivalent means. The dry powder may be resuspended in water and centrifuged to separate insoluble debris from water-soluble pheromones. For storage the supernatant may be concentrated to dryness using a lyophilizer, a spray drier, or any equivalent means. The concentration and ratio of the pheromone mixture was evaluated for its activity on plants. […] In addition, for example, one insect host cadaver extract from Galleria mellonella (average weight of G. mellonella larvae, wax worm, is estimated to be approximately 232+/−57 mg) is diluted in 200 μL water which is physiologically relevant concentration as 1×HCE. When one insect host cadaver extract from Galleria mellonella is resuspended in 3200 μL (about 16 times dilution or 0.0625×HCE). Total 34 HCE S. carpocapsae pheromone extracts with 300,000 S. carpocapsae IJs in 110 mL of water in 15 cm soil surrounding the tree trunk. Then an additional 190 mL of water was added to the 15 cm of soil surrounding the tree trunk. […]

## CCOP(=S)(OCC)Oc1nc(Cl)c(Cl)cc1Cl [Chlorpyrifos]
  time for which soil microbials were promoted / soil microbial abundance increased: ≤ 2 weeks
